Tests used:
[1] = tested on: human ARNT; test: DRE-luciferase in ARNT-deficient C4 cells transfected with ARNT; type: cell-based; conditions: ARNT or empty vector, 3 µM, 18 h
[2] = known value; cited from earlier work
[3] = tested on: naïve T cells; test: Naïve T cells in Th17 conditions, IL-17 ELISA of supernatant; type: cell-based, mouse; conditions: TGF-β 4 ng/ml, IL-6 20 ng/ml, 3 days
[4] = tested on: AHR^−/− splenocytes; test: CYP1A1 and IDO mRNA in AHR^−/− splenocytes; type: cell-based, mouse; conditions: null cells, SU5416 500 nM or IFN-γ 100 ng/ml, 4 hours
From the text: An important role for the AHR in the immune system, and specifically T-cell differentiation, has been recognized and continues to be characterized in the literature, [7]. Some ligands of the AHR have the ability to enhance Treg differentiation from naïve T-cells (TCDD, kynurenine), while others direct differentiation towards Th17 effector cells (FICZ). […] IDO has long been known to play a role in Treg generation, and may be central to the mechanism of Dendritic Cell (DC)-directed Treg generation. We as well as others have previously shown that IDO mRNA can be induced by ligands of the AHR, and that the mechanisms of IDO-directed Treg generation may depend on the AHR [25]. […] As described in the Methods, naïve T-cells were sorted using magnetic bead separation, and placed in culture for 5 days with allogeneic pDCs separated from BALB/C mice. SU5416, TCDD, FICZ, or media alone was added at the start of culture. After 5 days, cells were collected and mRNA harvested for qPCR analysis of IDO and FoxP3. […] We used a dose of 2 ng/ml TGF-β, which in our hands has been a suboptimal dose for Treg generation (4 ng/ml has been optimal in our hands). […]
A. Spleens were harvested from mice and processed in the standard fashion. […] Same assay as A, but mRNA for CYP1B1 and IDO were measured. […] Same assay as in C, but IDO mRNA was assessed. * - p≤0.05. * - p≤0.01. […]

[5] = molecular target: T1, rat AHR^b (5L) (Rattus norvegicus, UniProt P41738); test: EROD activity in rat hepatoma 5L cells; type: cell-based; conditions: 5L versus AHR^d-15 cells, 40 hours
T1 construct: endogenous in cells; host or cells: rat hepatoma 5L cells
T1 sequence (P41738 10-853): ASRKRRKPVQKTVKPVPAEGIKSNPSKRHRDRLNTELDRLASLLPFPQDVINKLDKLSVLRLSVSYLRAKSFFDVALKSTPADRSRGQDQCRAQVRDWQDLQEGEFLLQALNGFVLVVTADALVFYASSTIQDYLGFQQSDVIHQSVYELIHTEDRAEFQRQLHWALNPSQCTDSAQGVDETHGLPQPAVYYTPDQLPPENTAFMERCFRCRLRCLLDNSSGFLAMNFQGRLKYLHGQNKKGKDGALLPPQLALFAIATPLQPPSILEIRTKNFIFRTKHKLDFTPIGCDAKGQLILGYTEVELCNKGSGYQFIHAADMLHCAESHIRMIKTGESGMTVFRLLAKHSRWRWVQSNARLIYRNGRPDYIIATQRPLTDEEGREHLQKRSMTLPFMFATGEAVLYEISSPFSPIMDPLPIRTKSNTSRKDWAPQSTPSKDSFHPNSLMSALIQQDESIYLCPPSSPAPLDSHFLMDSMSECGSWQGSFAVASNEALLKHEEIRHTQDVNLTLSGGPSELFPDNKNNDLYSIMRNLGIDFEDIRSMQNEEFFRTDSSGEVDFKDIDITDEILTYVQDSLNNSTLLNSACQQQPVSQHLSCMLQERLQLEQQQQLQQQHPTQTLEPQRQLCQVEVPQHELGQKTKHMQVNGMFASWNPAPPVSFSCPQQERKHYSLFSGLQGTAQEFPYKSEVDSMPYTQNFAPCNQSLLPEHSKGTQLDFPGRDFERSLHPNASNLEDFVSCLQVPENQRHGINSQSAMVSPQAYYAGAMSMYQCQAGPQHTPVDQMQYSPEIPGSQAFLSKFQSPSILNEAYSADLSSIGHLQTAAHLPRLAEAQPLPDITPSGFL
Description: We utilized the wild type rat hepatoma cell line, 5L, which harbors the high affinity AHR isoform, and our newly created AHR^d-15 cell line. […] Groups of control mice were given corn oil alone or BNF at the concentration of 120 mg/kg.
Figure 3 In Vitro dose response curves. A. Rat hepatoma cell lines bearing the murine AHR^d (AHR^d-15) or the rat AHR^b (5L) were incubated with increasing doses of TCDD in 96-well plates. After 40 hours, EROD activity was performed from whole cell lysate. (n = 3). […] (n = 3). C. Same assay as in A, with increasing doses of BNF. (n = 2). […] Following 48 hours, hepatic microsomal proteins were isolated and used for the assessment of EROD activity. Animals were treated in groups of 4. Error bars: S.D.
High-throughput analysis of EROD activity was assayed by adapting a protocol that was described elsewhere, [63]. Briefly, cells were seeded into 96-well plates at ∼ 60% density and treated with the test compounds for 36 hours. The cells were washed with PBS and lysed with 30 µL water and a cycle of freeze-thaw. To each well, 150 µL of 50 mM Hepes buffer containing 26.7 µM dicumarol and 13.3 µM ethoxyresorufin were added. The samples were incubated at 30°C for 20 minutes, and 50 µL of 0.5 mM β-NADPH were added to initiate the reaction. Fluorescence of the resorufin product was detected using the 544 nm excitation and 590 nm emission wavelength filter set.

Compound | DRE-luciferase activity [1] | plasma half-life [2] [min] | IL-17 protein by ELISA in the supernatant ([3]; higher doses) | IL-17 protein by ELISA in the supernatant ([3]; low doses) | IDO mRNA induction [4] | shift of EROD dose-response to the left for the AHR^b isoform [5]
Cc1cc(C)c(C=C2C(=O)Nc3ccccc32)[nH]1 [SU5416, 3-(3,5-dimethyl-1H-pyrrol-2-ylmethylene)-1,3-dihydro-indole-2-one] | activity was only seen when ARNT was transfected | 30 | did not see this effect | small increase | not null cells | 
Clc1cc2c(cc1Cl)Oc1cc(Cl)c(Cl)cc1O2 [TCDD, 2,3,7,8-tetrachlorodibenzo-p-dioxin] |  |  |  |  |  | 1.5 orders of magnitude

Source: publication PMC3435281 (PLoS ONE, 2012)
